Source: patent publication US11434222B2, “MAGL inhibitors” (H. LUNDBECK A/S, priority 2020, dated 2022)

Biological target: T1, MAGL (Homo sapiens, UniProt Q99685)
T1 construct: PC3 human cell membrane proteomes; endogenous in cells; host or cells: PC3 human cells (membrane proteome)
T1 sequence (Q99685 1-303): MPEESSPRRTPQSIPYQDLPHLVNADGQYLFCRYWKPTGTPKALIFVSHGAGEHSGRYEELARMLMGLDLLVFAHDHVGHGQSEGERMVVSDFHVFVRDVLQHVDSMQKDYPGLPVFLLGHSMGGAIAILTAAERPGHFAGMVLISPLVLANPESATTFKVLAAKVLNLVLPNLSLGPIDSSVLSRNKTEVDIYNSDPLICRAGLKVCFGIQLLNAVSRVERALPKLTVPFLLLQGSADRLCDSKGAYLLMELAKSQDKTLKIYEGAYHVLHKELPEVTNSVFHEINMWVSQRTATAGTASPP
Assay: In vitro competitive activity-based protein profiling (PC3 human cell membrane proteomes)
Assay type: biochemical
Conditions: not given
Description: PC3 human cell membrane proteomes (50 µL, 2.0 mg/mL total protein concentration) were preincubated with varying concentrations of inhibitors at 37° C. After 30 min, the ABPP probe JW912-Bodipy (1.0 µL, 50 µM in DMSO) was added and the mixture was incubated for 30 min at room temperature. Reactions were quenched with SDS loading buffer (15 μL-4×) and run on SDS-PAGE. Following gel imaging, serine hydrolase activity was determined by measuring fluorescent intensity of gel bands corresponding to MAGL using ImageJ 1.43u software. Intensities were converted to percent enzyme activity by normalizing to DMSO controls. IC50 values were determined by fitting percent enzyme activities to a non-linear regression, 4-parameter, sigmoidal dose response function in Prism GraphPad.

SMILES | MAGL % inh. 1 µM (human PC3) [%]
CN(C(=O)C1CC12CCN(C(=O)OC(C(F)(F)F)C(F)(F)F)CC2)c1ccccn1 (single isomer, unassigned) [Example 46, 1,1,1,3,3,3-hexafluoropropan-2-yl (R or S)-1-(methyl(pyridin-2-yl)carbamoyl)-6-azaspiro[2.5]octane-6-carboxylate] | 100
O=C(Nc1ccccn1)C1CC12CCN(C(=O)OC(C(F)(F)F)C(F)(F)F)CC2 (single isomer, unassigned) [Example 49, 1,1,1,3,3,3-hexafluoropropan-2-yl (R or S)-1-(pyridin-2-ylcarbamoyl)-6-azaspiro[2.5]octane-6-carboxylate] | 100
O=C(OC(C(F)(F)F)C(F)(F)F)N1CCC2(CC1)CC2C(=O)N1CCn2cc(C(F)(F)F)nc2C1 (single isomer, unassigned) [Example 52, 1,1,1,3,3,3-hexafluoropropan-2-yl (R or S)-1-(2-(trifluoromethyl)-5,6,7,8-tetrahydroimidazo[1,2-a]pyrazine-7-carbonyl)-6-azaspiro[2.5]octane-6-carboxylate] | 100
O=C(Nc1cnccn1)C1CC12CCN(C(=O)OC(C(F)(F)F)C(F)(F)F)CC2 (single isomer, unassigned) [Example 55, 1,1,1,3,3,3-hexafluoropropan-2-yl (R or S)-1-(pyrazin-2-ylcarbamoyl)-6-azaspiro[2.5]octane-6-carboxylate] | 100
O=C(OC(C(F)(F)F)C(F)(F)F)N1CCC2(CC1)CC2C(=O)N1CCc2cnc(C(F)(F)F)nc2C1 (single isomer, unassigned) [Example 58, 1,1,1,3,3,3-hexafluoropropan-2-yl (R or S)-1-(2-(trifluoromethyl)-5,6,7,8-tetrahydropyrido[3,4-d]pyrimidine-7-carbonyl)-6-azaspiro[2.5]octane-6-carboxylate] | 100
O=C(OC(C(F)(F)F)C(F)(F)F)N1CCC2(CC1)CC2C(=O)N1CCc2ncncc2C1 (single isomer, unassigned) [Example 61, 1,1,1,3,3,3-hexafluoropropan-2-yl (R or S)-1-(5,6,7,8-tetrahydropyrido[4,3-d]pyrimidine-6-carbonyl)-6-azaspiro[2.5]octane-6-carboxylate] | 75
O=C(OC(C(F)(F)F)C(F)(F)F)N1CCC2(CC1)CC2C(=O)N1CCc2nc(C3CC3)ncc2C1 (single isomer, unassigned) [Example 64, 1,1,1,3,3,3-hexafluoropropan-2-yl (R or S)-1-(2-cyclopropyl-5,6,7,8-tetrahydropyrido[4,3-d]pyrimidine-6-carbonyl)-6-azaspiro[2.5]octane-6-carboxylate] | 100
O=C(Nc1cncc(Cl)c1)C1CC12CCN(C(=O)OC(C(F)(F)F)C(F)(F)F)CC2 (single isomer, unassigned) [Example 67, 1,1,1,3,3,3-hexafluoropropan-2-yl (R or S)-1-((5-chloropyridin-3-yl)carbamoyl)-6-azaspiro[2.5]octane-6-carboxylate] | 100
Cc1ncccc1NC(=O)C1CC12CCN(C(=O)OC(C(F)(F)F)C(F)(F)F)CC2 (single isomer, unassigned) [Example 69, 1,1,1,3,3,3-hexafluoropropan-2-yl (R or S)-1-((2-methylpyridin-3-yl)carbamoyl)-6-azaspiro[2.5]octane-6-carboxylate] | 100
Cc1ncccc1NC(=O)C1CC12CCN(C(=O)OC(C(F)(F)F)C(F)(F)F)CC2 (single isomer, unassigned) [Example 70, 1,1,1,3,3,3-hexafluoropropan-2-yl (R or S)-1-((2-methylpyridin-3-yl)carbamoyl)-6-azaspiro[2.5]octane-6-carboxylate] | 75
O=C(Nc1cccc(C(F)(F)F)n1)C1CC12CCN(C(=O)OC(C(F)(F)F)C(F)(F)F)CC2 (single isomer, unassigned) [Example 73, 1,1,1,3,3,3-hexafluoropropan-2-yl (R or S)-1-((6-(trifluoromethyl)pyridin-2-yl)carbamoyl)-6-azaspiro[2.5]octane-6-carboxylate] | 100
O=C(Nc1ccc(C(F)(F)F)nc1)C1CC12CCN(C(=O)OC(C(F)(F)F)C(F)(F)F)CC2 (single isomer, unassigned) [Example 79, 1,1,1,3,3,3-hexafluoropropan-2-yl (R or S)-1-((6-(trifluoromethyl)pyridin-3-yl)carbamoyl)-6-azaspiro[2.5]octane-6-carboxylate] | 50
Cc1ccc(NC(=O)C2CC23CCN(C(=O)OC(C(F)(F)F)C(F)(F)F)CC3)cn1 (single isomer, unassigned) [Example 82, 1,1,1,3,3,3-hexafluoropropan-2-yl (R or S)-1-((6-methylpyridin-3-yl)carbamoyl)-6-azaspiro[2.5]octane-6-carboxylate] | 100
O=C(Nc1cccnc1C(F)(F)F)C1CC12CCN(C(=O)OC(C(F)(F)F)C(F)(F)F)CC2 (single isomer, unassigned) [Example 85, 1,1,1,3,3,3-hexafluoropropan-2-yl (R or S)-1-((2-(trifluoromethyl)pyridin-3-yl)carbamoyl)-6-azaspiro[2.5]octane-6-carboxylate] | 100
O=C(NCc1cccnc1)C1CC12CCN(C(=O)OC(C(F)(F)F)C(F)(F)F)CC2 (single isomer, unassigned) [Example 88, 1,1,1,3,3,3-hexafluoropropan-2-yl (R or S)-1-((pyridin-3-ylmethyl)carbamoyl)-6-azaspiro[2.5]octane-6-carboxylate] | 100
O=C(NC(=O)C1CC12CCN(C(=O)OC(C(F)(F)F)C(F)(F)F)CC2)C1CCCCC1 (single isomer, unassigned) [Example 91, 1,1,1,3,3,3-hexafluoropropan-2-yl (R or S)-1-((cyclohexanecarbonyl)carbamoyl)-6-azaspiro[2.5]octane-6-carboxylate] | 100
O=C(NC(=O)C1CC12CCN(C(=O)OC(C(F)(F)F)C(F)(F)F)CC2)c1ccccc1 (single isomer, unassigned) [Example 94, 1,1,1,3,3,3-hexafluoropropan-2-yl (R or S)-1-(benzoylcarbamoyl)-6-azaspiro[2.5]octane-6-carboxylate] | 100
O=C(Nc1cncnc1)C1CC12CCN(C(=O)OC(C(F)(F)F)C(F)(F)F)CC2 (single isomer, unassigned) [Example 97, 1,1,1,3,3,3-hexafluoropropan-2-yl (R or S)-1-(pyrimidin-5-ylcarbamoyl)-6-azaspiro[2.5]octane-6-carboxylate] | 90
O=C(Nc1cnc(C(F)(F)F)nc1)C1CC12CCN(C(=O)OC(C(F)(F)F)C(F)(F)F)CC2 (single isomer, unassigned) [Example 100, 1,1,1,3,3,3-hexafluoropropan-2-yl (R or S)-1-((2-(trifluoromethyl)pyrimidin-5-yl)carbamoyl)-6-azaspiro[2.5]octane-6-carboxylate] | 75

Test system: not listed separately
Assay: Kinetic solubility in PBS
Assay type: physicochemical
Conditions: aqueous buffer, kinetic from dmso stock, PBS pH 2.0, RT, read-out: pH 2 Solubility (kinetic)
Description: The kinetic solubility of test articles was determined in PBS at pH 2.0 and pH 7.4 in duplicate. A stock solution of test compound in DMSO (10 mM) was incubated at RT for 2 hours with shaking at 1,100 RPM. The sample was then filtered using a vacuum manifold, diluted, and analyzed by LC-MS/MS. Chromatographic conditions: Phenomenex Synergi 4μ Hydro-PR 80A column (2.0×30 mm) coupled with pre-guard column; mobile phase=0.1% formic acid in acetonitrile and 0.1% formic acid in water; flowrate=0.65 mL/min; column temperature=40° C.; injection volume: 3 μL.
Mass conditions: Turbo spray ion source; ESI ionization model; MRM scan type; Collison gas=6 L/min; Curtain gas=30 L/min; Nebulize gas=50 L/min; Auxiliary gas=50 L/min; Temperature=500 degrees C.; Ion spray voltage=+5500 v (positive MRM).
The filtered solution was analyzed and quantified against a standard of known concentration in DMSO using UPLC coupled with mass spectral peak identification and quantitation. Solubility values of the test articles were calculated using Microsoft Excel as follows (DF is the dilution factor): […]

SMILES | solubility kinetic at 2 h [µM]
O=C(NC(=O)C1CC12CCN(C(=O)OC(C(F)(F)F)C(F)(F)F)CC2)C1CCCCC1 (single isomer, unassigned) [Example 90, 1,1,1,3,3,3-hexafluoropropan-2-yl (R or S)-1-((cyclohexanecarbonyl)carbamoyl)-6-azaspiro[2.5]octane-6-carboxylate] | 33

Same assay, conditions: aqueous buffer, kinetic from dmso stock, PBS pH 7.4, RT, read-out: pH 7.4 Solubility (kinetic)

SMILES | solubility kinetic at 2 h [µM]
O=C(Nc1ccnc(C(F)(F)F)n1)[C@H]1CC12CCN(C(=O)OC(C(F)(F)F)C(F)(F)F)CC2 (single isomer, unassigned) [Example 17] | 0.07
O=C(Nc1cncc(Cl)c1)C1CC12CCN(C(=O)OC(C(F)(F)F)C(F)(F)F)CC2 (single isomer, unassigned) [Example 66, 1,1,1,3,3,3-hexafluoropropan-2-yl (R or S)-1-((5-chloropyridin-3-yl)carbamoyl)-6-azaspiro[2.5]octane-6-carboxylate] | 8.74
